Experimental findings from patent US20250326757A1, “SOLID FORMS OF HETEROCYCLYLAMIDES AS IRAK4 INHIBITORS” (AstraZeneca AB, priority 2022, published 2025) are described below.

SMILES strings stand for the structures.

Data set [1] is classed as physicochemical. The settings on record: 70° C., low (11%) and high (75%) relative humidity, 21 days. As to the method:
The physical and chemical stability of N-(Imidazo[1,2-b]pyridazin-3-yl)-6-methoxy-2-((1r,4r)-4-(N-methylacetamido)cyclohexyl)-2H-indazole-5-carboxamide Form A was further assessed under stressed conditions (elevated temperature (70° C.) at low (11%) and high (75%) relative humidity) over a period of 21 days according to standard protocols. Briefly, samples of Form A material were weighed into sample vials, the sample vials were placed in separate jars each containing a MadgeTech temperature and humidity logger and, in a separate vial, a saturated solution of either lithium chloride (to give 11% relative humidity) or sodium chloride (to give 75% relative humidity). The two jars (low/high humidity) were then sealed and placed in a calibrated oven at a temperature of 70° C. for a period of 21 days. Control samples were maintained in sealed vials in a refrigerator for the duration of the study.
Furthermore, XRPD confirmed that the physical form of the material over the course of the study was unchanged. It could thus be concluded that no chemical degradation of the samples or change in their physical form occurred on storage under stressed conditions. Accordingly, the suitability of N-(Imidazo[1,2-b]pyridazin-3-yl)-6-methoxy-2-((1r,4r)-4-(N-methylacetamido)cyclohexyl)-2H-indazole-5-carboxamide Form A for further development in pharmaceutical formulations was established.

The format of data set [2] is physicochemical. As to the method: Amorphous Compound (I) (20 mg) was suspended in 2-propanol (800 μL) and stirred at room temperature for 2 weeks. The resultant solid was collected by filtration.

Regarding `COc1cc2nn([C@H]3CC[C@H](N(C)C(C)=O)CC3)cc2cc1C(=O)Nc1cnc2cccnn12` [Form A, N-(Imidazo[1,2-b]pyridazin-3-yl)-6-methoxy-2-((1r,4r)-4-(N-methylacetamido)cyclohexyl)-2H-indazole-5-carboxamide Form A], the “Physical form by XRPD over the course of the study” value in data set [1] is “unchanged”. Besides, the “Stability to prolonged storage under accelerated ageing conditions” value in data set [2] was “stable”.
